Among the data in publication PMC9030622, “Investigation of an Allosteric Deoxyhypusine Synthase Inhibitor in P. falciparum” (Molecules, 2022) are IC50 values, retold here.

Experiment [1] has as its target T1, P. falciparum deoxyhypusine synthase (DHS) (Plasmodium falciparum, UniProt Q9GSW0).
T1 construct: recombinant, truncated P. falciparum DHS, N-terminally histidine-tagged
T1 sequence (Q9GSW0 1-496): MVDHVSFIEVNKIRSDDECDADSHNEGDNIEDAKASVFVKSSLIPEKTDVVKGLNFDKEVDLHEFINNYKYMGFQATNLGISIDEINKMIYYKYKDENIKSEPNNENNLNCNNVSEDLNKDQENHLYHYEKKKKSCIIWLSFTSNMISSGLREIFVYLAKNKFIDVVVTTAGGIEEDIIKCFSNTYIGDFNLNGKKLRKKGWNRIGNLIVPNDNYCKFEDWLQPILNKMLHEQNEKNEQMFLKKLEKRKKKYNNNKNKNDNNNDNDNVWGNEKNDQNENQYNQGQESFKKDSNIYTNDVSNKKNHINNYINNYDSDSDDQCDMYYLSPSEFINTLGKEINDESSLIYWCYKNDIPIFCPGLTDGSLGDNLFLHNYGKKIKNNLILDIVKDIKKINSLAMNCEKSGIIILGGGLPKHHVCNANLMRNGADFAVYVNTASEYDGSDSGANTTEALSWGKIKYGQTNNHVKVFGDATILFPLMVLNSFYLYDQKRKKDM
Description: deoxyhypusine formation assay with purified recombinant PfDHS, GC/MS readout. The class given is biochemical.

Experiment [2] concerns the target T1, P. falciparum deoxyhypusine synthase (DHS). Description: deoxyhypusine formation assay with purified recombinant PfDHS, GC/MS readout; partial (max […]) inhibition. The class given is biochemical.

The IC50 is the point on the concentration scale where inhibition reaches its midpoint. For the compound `O=C(O)c1cc(O)c2cccc(O)c2n1` [C, 4,8-Dihydroxyquinoline-2-carboxylic acid], the concentration for half-maximal inhibition (IC50) in experiment [1] was 112 nM.

With `O=C(Nc1cccc2[nH]ccc12)c1cc2ccc(Br)cc2s1` [6-bromo-N-(1H-indol-4yl)-1-benzothiophene-2-carboxamide], the IC50 in experiment [2] was determined as 340 nM.
